Reference: patent publication US11337971B2, “Dopamine D3 receptor selective antagonists/partial agonists and uses thereof” (THE UNITED STATES OF AMERICA, AS REPRESENTED BY THE …, priority 2018, dated 2022)
Entries after “also recorded” stand apart in the source; their conditions may differ. Like-named read-outs stand apart in the source and are kept apart here.

Assays:
human D2R = human D2R (Homo sapiens (Human), UniProt P14416); assay: Radioligand competition binding, [3H]N-methylspiperone, HEK293 membranes expressing human D2R; details: read-out: D2R Ki ± SEM
Summary of the method: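 HEK293 membranes (10 μg protein) incubated 1 h at room temperature in EBSS with 0.2 mM sodium metabisulfite, 0.4 nM [3H]N-methylspiperone and compound (10 μM to 10 pM, triplicate). Nonspecific binding defined with 10 μM butaclamol; GF/B filtration.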

Male Long-Evans rats [1] = assay: Oxycodone-triggered reinstatement of drug-seeking behavior; format: in vivo, rat; details: 5-15 mg/kg, i.p., oxycodone priming 1 mg/kg
Procedure: For the three groups from Experiment 2, extinction sessions continued without drug treatment until the rats' average active lever-presses/session decreased to less than 10 responses over 3 consecutive sessions. On the following day, 2 groups of rats were first pretreated with 1 of 2 doses of compound (±)-29 (5 or 15 mg/kg) while another group with vehicle. Fifteen min following pretreatment, all the animals received a non-contingent injection of oxycodone priming (1 mg/kg, i.p.) and then were placed into the same operant chambers for another extinction session.

Male Long-Evans rats [2] = assay: Naloxone-precipitated conditioned place aversion (CPA) in chronic oxycodone-treated rats; format: in vivo, rat; details: 5 or 15 mg/kg, i.p., 1 h before naloxone conditioning
Procedure: Naloxone-precipitated CPA was tested in a place-conditioning apparatus (Med Associates, St Albans, Vt.) consisting of two side compartments (21 cm×28 cm) and a central gray connecting area (21 cm×12.5 cm); a sliding door separated each compartment from the connecting area. The two side compartments differed in wall color (black vs white), floor type (stainless steel net vs stainless steel grid), and illumination. Before the experiment started, all the animals were allowed to explore the conditioning apparatus for 15 min (preconditioning).
Six groups (n=8/group) of rats were involved in this test, 3 groups were chronically treated with oxycodone (3 mg/kg, i.p.) and the other 3 with saline (1 ml/kg), twice daily (800 and 1800 h). Four hours following the morning injection on Day 4 and 6, the oxycodone treated rats were challenged with saline and immediately confined in one side compartment of the conditioning box for 30 min, while on Day 5 and 7, they were first pretreated with either vehicle or 1 of 2 doses of compound (±)-29 (5 and 15 mg/kg, i.p.) 3 h after morning oxycodone injection, and 1 h later, challenged with naloxone (1 mg/kg, i.p.). […] The time that animals spent in each compartment was recorded. The CPA score was calculated as the time difference (seconds) that animal spent in drug-paired versus saline-paired compartment.

Sequence of human D2R (P14416 whole entry): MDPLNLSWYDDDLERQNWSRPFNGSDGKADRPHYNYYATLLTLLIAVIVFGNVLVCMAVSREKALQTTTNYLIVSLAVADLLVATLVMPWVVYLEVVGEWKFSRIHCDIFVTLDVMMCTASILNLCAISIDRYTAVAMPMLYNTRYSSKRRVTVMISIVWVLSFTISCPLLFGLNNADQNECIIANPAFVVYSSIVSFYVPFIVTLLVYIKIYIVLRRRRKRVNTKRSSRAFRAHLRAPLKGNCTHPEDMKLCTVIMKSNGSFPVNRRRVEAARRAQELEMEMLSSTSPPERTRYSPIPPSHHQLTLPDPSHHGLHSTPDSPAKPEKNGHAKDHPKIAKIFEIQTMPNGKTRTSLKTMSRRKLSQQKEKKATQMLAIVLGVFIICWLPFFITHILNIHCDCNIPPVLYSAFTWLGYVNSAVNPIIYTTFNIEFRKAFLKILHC

In the case of `CCc1cc(Cl)c(OC)c(N2CCN(CC(O)CCNC(=O)c3cc4ccccc4[nH]3)CC2)c1` (racemic) [Compound 29, N-(4-(4-(3-chloro-5-ethyl-2-methoxyphenyl)piperazin-1-yl)-3-hydroxybutyl)-1H-indole-2-carboxamide], the Ki (human D2R; Table 1B, [3H]-N-methylspiperone competition, D2LR, 96-well plates) is reported as 11.4 ± 3.27 µM, the Ki (human D2R; Table 1C) is reported as 13.2 ± 3.77 µM and the “oxycodone-primed reinstatement of active lever-presses” value (Male Long-Evans rats [1]) is reported as “dose-dependently blocked; also recorded: dose dependently reduced reinstatement to oxycodone seeking”. The “naloxone-precipitated CPA in chronically oxycodone-treated rats” value (Male Long-Evans rats [2]) was “dose-dependently attenuated the CPA induced by naloxone; also recorded: significantly blocked CPA induced by naloxone-precipitated withdrawal; also recorded: inhibition of naloxone-precipitated conditioned place aversion”.
